Tested on: liver
Assay: Liver thermogenesis in AKR mice with IR transparent adhesive
Assay type: in vivo
Conditions: AKR mice on high-fat diet, 75 mg/kg i.g., 5 hours
Procedure: FIG. 31. Liver thermogenesis in AKR mice 5 hours after treatment with the nucleoside reverse transcriptase inhibitor (NRTI) D4T detected by IR thermography. Male AKR mice were housed 5 per cage and maintained on high fat diet (58% kCals as fat) and water ad libitum. Mice were dosed at 0, 1, 10, 75, and 100 mg/kg D4T in water vehicle (0.5 mL i.g.; n=10 per dose) and anesthetized using isoflurane as described above 5 hours after treatment. The abdomens of the anesthetized mice were surgically opened to expose the liver and Bioclusive adhesive was placed over the entire exposed area. IR images of the liver region were acquired and analyzed as detailed in FIG. 28. […] Quantification of the IR signal depicted in the image is shown in the bottom left panel. Analysis of the dose response to D4T is shown in the panel to the right. Data shown are means±SEM for n=10 animals per group.
AKR mice fed a high-fat diet were treated with 75 mg/kg D4T, and their abdomens were surgically opened and covered with Bioclusive adhesive 5 hour later. […] This decrease is quantitated in the lower left panel of FIG. 31. Moreover, the dose-dependent effect of D4T on decreased liver temperature determined using IR thermography (FIG. 31, right panel) correlated well with the effect of D4T treatment on serum non-esterified fatty acid levels (r=0.91, data not shown).

Structure (SMILES): Cc1cn([C@H]2C=C[C@@H](CO)O2)c(=O)[nH]c1=O [D4T]
- liver temperature: decrease in temperature
